# ChEMBL document CHEMBL3507680, “University of Dundee, Gates Library screen for HepG2 cell viability”
# Assay: Human HepG2 cell viability assay in 384 well format
# Format: toxicity, cell-based
# Design: dose 125 nL, time 70.5 hour; cytotoxicity at 70.5 h: concentration not given beside the values
# Details: HepG2 cells, read-out: Inhibition
row,SMILES,cytotoxicity at 70.5 h [%]
1,COc1ccc(-c2n[nH]cc2CN2CCSCC2)c(OC)c1,-7.44
2,CCCn1cnnc1CNC(=O)C1COc2ccc(OC)cc2C1 (stereo not drawn),20.1
3,CCOc1ccnc(NCc2nc(C)cc(C(F)(F)F)n2)n1,-0.888
4,COc1cccc([C@@H]2CCN(Cc3cccc(C)n3)C[C@H]2O)c1,-9.27
5,CC(=O)NCCNCc1cn(CCN2CCSCC2)nc1C,-5.7
6,CCN(C)S(=O)(=O)NCC1CCN(Cc2ccccc2C)CC1,-9.65
7,COCC(C)N1CCc2onc(-c3ccc(C(F)(F)F)cc3)c2C1 (stereo not drawn),-7.25
8,CCn1cncc1C1CC(=O)Nc2c1c(C)nn2-c1ccc(C)cc1 (stereo not drawn),1.51
9,Cc1c(C(C)NCC2CCCC2)cnn1-c1ccc(F)cc1F (stereo not drawn),-11.6
10,CN(C)c1nc2c(c(=O)[nH]1)Cc1ccccc1OC2,31.5
11,Cc1nc(N(C)CCCc2nccn2C)c2nc(C)oc2n1,-11.8
12,CCNC(=O)[C@@H]1C[C@H](n2cc(CC3CCCCC3)nn2)CN1,-7.89
13,CN(Cc1nc(C2CC2)no1)C(=O)CN1CC(c2ccccc2)CC1=O (stereo not drawn),-2.96
14,CCn1nc(CNC(=O)C2CCCN(CC(N)=O)C2)c2ccccc21 (stereo not drawn),-14.9
15,CCN(CC)c1ncccc1CNCc1ccc(Cl)s1,-7.77
16,Cc1ccc(NC2CCCN(Cc3ccc(Cl)cc3)C2)nn1 (stereo not drawn),25.4
17,COc1cc(Oc2ccc(C(F)(F)F)cn2)ccc1CN1CCCC1,-10.7
18,COc1cccc(OCC2CCCN(C(=O)CCCn3cccn3)C2)c1 (stereo not drawn),-11
19,CCCc1nc(CN(CC)Cc2ccoc2)no1,-7.87
20,COc1ccc(-c2ccc(C(=O)N3CCOCC3CC(N)=O)o2)cc1 (stereo not drawn),-2.54
21,CCOc1ccc2[nH]c(=O)c(CN(C)CCc3cn[nH]c3)cc2c1,4.91
22,Cc1n[nH]c(C)c1CNc1nc(-c2ccco2)nc2c1CCNCC2,5.99

row,SMILES,cytotoxicity at 70.5 h [%]
1,O=C(CCN1CCOCC1)NC1CCCN(CC2CCCCC2)C1 (stereo not drawn),-3.9
2,N[C@H]1CC[C@@H](NC(=O)c2ccc3nc(-c4ccc(F)cc4)cn3c2)CC1,-14.6
3,CN(C)C(=O)N1C[C@@H]2CC[C@H](C1)N(Cc1nnc(-c3ccccc3)o1)C2,-16.7
4,CCc1c(C)sc2ncnc(N3C[C@H](O)[C@@H](N4CCCC4)C3)c12,-2.63
5,Nc1nc(CCC(=O)N2C[C@@H](CN3CCCC3)C[C@H](CO)C2)n[nH]1,-6.67
6,CC[C@H]1COCCN1C(=O)c1cnc(C(C)C)nc1C,16.6
7,Cc1cc(C)nc(N2CCCC(Cn3cc(CN(C)C)nn3)C2)n1 (stereo not drawn),-6.18
8,CCOc1ccc(CNCc2cccnc2N(C)C)cc1,-5.74
9,O=C(CCN1CCCO1)N1CC[C@@H](CNC(=O)N2CCCC2)[C@H](O)C1,14
10,CC(C)c1nc(CN2CCc3onc(-c4cccc(F)c4)c3C2)no1,-8.91
11,Cc1nc(C2CCCNC2)cc(N(Cc2c(C)nn(C)c2C)C2CC2)n1 (stereo not drawn),-0.0304
12,CC(C)N1CCC(CC(=O)NC(C(=O)O)c2cccc(F)c2)CC1 (stereo not drawn),-5.14
13,COc1ccc(-n2c(SCC(=O)O)nnc2-c2cn[nH]c2)cc1,15.3
14,O=C(CC1COCCN1)NCCc1nc(Cc2ccccc2)no1 (stereo not drawn),-15.5
15,CC(NC(=O)Nc1ccccc1CN1CCOCC1)c1nnc(N)s1 (stereo not drawn),-11.9
16,CCCn1cc(C(=O)NC(CC(=O)O)c2ccco2)c(C)n1 (stereo not drawn),-8.82
17,CN(Cc1cnc(N)nc1)C(=O)C1CC(=O)N(Cc2ccncc2)C1 (stereo not drawn),-10.8
18,Cc1csc2c(=O)n(CCN3CCC(c4ccccc4)CC3)cnc12,-3.26
19,CCc1nc(C)sc1CN1CCc2[nH]nc(-c3ccc(F)c(F)c3)c2C1,-5.32
20,COCc1ncc(CN2CC[C@@](C)(O)[C@@H](Cc3ccccc3)C2)cn1,-1.9
21,COc1ccc(N2CCN(C(=O)CCn3nccc3C)CC2(C)C)cc1,1.97
22,Cc1cc2cccc(NC(=O)N3CCC(N(C)C)C3)c2o1 (stereo not drawn),-8.17

row,SMILES,cytotoxicity at 70.5 h [%]
1,Cc1cc(NC2CCN(c3ccc(F)cc3)CC2)n2nc(C)cc2n1,-1.64
2,Cc1nc(-c2cccc(C(=O)O)c2)c[nH]1,15.3
3,O=C(O)C1CCN(C[C@H]2CC[C@@H](Cc3ccc4c(c3)OCO4)O2)CC1,8.69
4,COc1nccc(N2CC[C@@H](N3CCC(O)CC3)[C@H](O)C2)c1C#N,5.37
5,CCOCC(=O)N1C[C@@H]2CC[C@H](C1)N(Cc1ccccn1)C2=O,-9.63
6,CN1CCN(C(=O)c2cn3ccsc3n2)[C@H]2CS(=O)(=O)C[C@H]21,-11.3
7,CCC(CO)N(Cc1ccc(F)cc1)Cc1c(C)nn(C)c1Cl (stereo not drawn),-3.37
8,COCc1noc(CC2CN(c3ncnc4sc(C)c(C)c34)CCO2)n1 (stereo not drawn),1.73
9,CC(C)[C@@H]1CN(Cc2cnc(C3CCCCC3)nc2)C[C@H]1N(C)C,8.03
10,O=C(c1ccnc(N2CCOC(C(F)(F)F)C2)c1)N1CCCC1 (stereo not drawn),8.43
11,Cc1nonc1C1CCCN1C(=O)c1cc2n(n1)CCCNC2 (stereo not drawn),4.03
12,CN1CCN(CCCOc2ccccc2CN2C[C@H]3CC[C@H]2C3)CC1,17.4
13,CCc1cnc(C)nc1N1CCC(Cc2cccc(C(=O)O)c2)C1 (stereo not drawn),-7.7
14,O=S(=O)(c1ccc(-c2nc3c([nH]2)CCNC3)cc1)N1CCCC1,-11.8
15,CCn1c(C)cc(C(=O)N2C[C@@H](C(=O)O)[C@H](c3ccccc3C)C2)c1C,-8.47
16,Cc1[nH]nc(CCC(=O)N2CCOC(CCc3ccccc3)C2)c1C (stereo not drawn),-0.521
17,Cc1nc(C(=O)N2CCN(C(=O)N(C)C)[C@@H]3CS(=O)(=O)C[C@@H]32)cs1,-5.31
18,c1ccc(Cc2nc(C3CC3)nn2-c2ccc3c(c2)OCCO3)nc1,43.6
19,Cc1nnsc1C(=O)NCc1cccnc1N(C)Cc1ccccc1,-7.67
20,COC(=O)[C@@H]1C[C@H](NC(=O)Cn2c(=O)cc(C)c3ccccc32)CN1C,26.6
21,CC(C)n1cc(C(=O)N2CCN(c3cccc(C(F)(F)F)c3)CC2)cn1,-5.28
22,CC(C)C[C@@H](CO)n1cc(-c2cncnc2)nn1,1.71

row,SMILES,cytotoxicity at 70.5 h [%]
1,Cc1csc2c(=O)n(C(C)Cc3cccnc3)cnc12 (stereo not drawn),-9.53
2,CN(C)C(=O)N1C[C@@H]2CC[C@H](C1)N(Cc1nnc(-c3ccco3)o1)C2,10.9
3,CC(C)NCc1cccnc1N1CCN(c2ccccn2)CC1,-11.6
4,CN(Cc1ccn[nH]1)Cc1c[nH]nc1-c1ccc(F)cc1,-3.15
5,c1cc(-c2ccc(CN3CCC4(CCNCC4)CC3)s2)[nH]n1,-2.82
6,COc1ccc(CCN(C)C(C(=O)O)c2ccc(F)c(C)c2)cc1OC (stereo not drawn),9.05
7,CCC(CO)N(Cc1ccsc1)Cc1ccccc1C(=O)O (stereo not drawn),-8.61
8,CCN(C)[C@H]1CN(C(=O)c2cccc(N3CCS(=O)(=O)CC3)c2)C[C@@H]1O,-7.37
9,Cn1nccc1NC(=O)Cn1ccc(-c2ccc3c(c2)OCO3)n1,-22.6
10,CCN(CCO)C[C@@H]1CN(C(=O)c2sc3ccccc3c2C)C[C@@H]1CO,8.11
11,COc1cccc2c1OCC(C(=O)NCCc1nc3c(s1)CCC3)C2 (stereo not drawn),-5.62
12,O=C(c1cccc(-n2cccn2)c1)N1CCCOC(Cn2cccn2)C1 (stereo not drawn),12.9
13,CSc1ccccc1C(=O)N1C[C@@H](N(C)C)[C@H](c2ccc(C)cc2)C1,-1.92
14,CN1CCC(Cc2noc(CC3CC3)n2)CC1,-7.67
15,O=C(c1ncccc1O)N1CCc2c(nc(-c3ccncc3)[nH]c2=O)C1,9.03
16,O=C(NCCn1cc(Cl)cn1)C1CCN(C(=O)C2CC2)CC1,2.7
17,Cn1ccc2ccc(C(=O)N3CCC[C@H]3C(=O)N3CCOCC3)cc21,-11.1
18,COc1ccccc1N1CCN(Cc2ncc(C)c(OC)c2C)CC1=O,-6.77
19,COc1ccc2c(c1)CC(C(=O)N(C)Cc1noc3c1CCCC3)CO2 (stereo not drawn),-4.86
20,Cc1cnc(C(=O)N2CCCC(c3nccn3Cc3cscn3)C2)cn1 (stereo not drawn),-3.23
21,CN(Cc1n[nH]c2c1CCC2)C(=O)c1cc(-c2cccn2C)n[nH]1,25.6
22,CN(CC1(CO)CCCC1)c1nc2c(c(=O)[nH]1)Cc1ccccc1OC2,-10

row,SMILES,cytotoxicity at 70.5 h [%]
1,Cc1noc(C)c1CN1CC2(CCN(Cc3c[nH]cn3)CC2)CC1=O,-2.12
2,CC(C)[C@@H]1CN(CC(=O)NCc2ccco2)C[C@H]1NS(=O)(=O)N(C)C,-3.9
3,O=S(=O)(c1ccc2c(c1)OCCO2)N1CCc2ccccc2C1,-7.73
4,CC(C)C1CN(C(=O)c2cc(=O)[nH]c(=O)[nH]2)CCCN1CC1CC1 (stereo not drawn),-0.864
5,Cc1ccccc1CSc1nc(N)cc(N2CCCC(C(N)=O)C2)n1 (stereo not drawn),-2.56
6,CCc1ocnc1C(=O)N1CCC(C2CCN(c3ncccn3)CC2)C1 (stereo not drawn),1.07
7,CC(=O)N[C@@H]1CN(C2CCN(c3cccc(Cl)c3)CC2)C[C@H]1C(C)C,-7.17
8,CC(C)C(O)C(=O)N1CCC2(CC1)c1nc[nH]c1CCN2S(C)(=O)=O (stereo not drawn),-6.39
9,Cc1ccccc1CN(CCN(C)C)Cc1ccc(S(C)(=O)=O)cc1,4.23
10,NC(=O)c1cc2c(nc1Oc1cccc(CN3CCCC3)c1F)CCC2,-13.8
11,CS(=O)(=O)NCCNc1ncnc2cccc(F)c12,-6.37
12,Cc1ccccc1CCC1CCCN(Cc2c(C)[nH]c(=O)[nH]c2=O)C1 (stereo not drawn),-8.6
13,COCc1noc(CNc2nc(C3CCCC3)nc3c2CCNCC3)n1,-10.6
14,Cc1cc(N(C)CCn2ccnc2C)n2nccc2n1,-11.6
15,CCCSCC(=O)N1C[C@H]2CC[C@@H]1CN(Cc1cccnc1)C2,6.46
16,Nc1cc(-c2cccc3ccnn23)ccn1,-2.42
17,COc1cc2c(cc1-c1nc3c(cnn3C(C)C(C)C)[nH]1)OCO2 (stereo not drawn),-0.404
18,CC(=O)NCc1nnc2n1CCN(c1ncnc3c1CCC3)CC2,25.3
19,O=C(NCC(F)F)c1ccc(S(=O)(=O)NCCc2ccncc2)cc1,-11.1
20,Cc1ccc(OC2(C(=O)NC(C)Cc3ccsc3)CCNCC2)cc1 (stereo not drawn),7.16
